Measurements: patent US20030236218A1, “Aryl phosphate derivatives of d4T with selective activity against adenovirus and HIV” (priority 2002, published 2003)
Values joined by “and” are separate entries in the source; they are usually repeats but may differ in a detail not shown here. Equal entries are not always repeated.

Columns and labels:
[1] = Pharmacokinetic studies in mice, oral administration; assay type: in vivo, Balb/c mice; settings: for AUC / Cmax / Tmax / t1/2: plasma analyte = label, after oral 100 mg/kg compound 113
Method: Female Balb/c mice (6-8 weeks old) from Taconic (Germantown, N.Y.) were housed in a controlled environment (12-hours of light/12-hours of dark, 22±1° C., 60±10% relative humidity), which is fully accredited by the USDA. All rodents were housed in microisolator cages (Lab Products, Inc., NJ) containing autoclaved bedding. The mice were allowed free access to autoclaved pellet food and tap water throughout the study. All animal care procedures conformed to the Guide for the Care and Use of Laboratory Animals (National Research Council, National Academy Press, Washington D.C. 1996).
Sampling time points were 0, 2, 5, 10, 15, 30, 45, 60, 120, 240 and 360 minutes after the gavage.
(§2) All collected blood samples were heparinized and centrifuged at 7000×g for 5 minutes to separate the plasma fraction from the whole blood. The plasma samples were then processed immediately using the extraction procedure described above.
(§3) Pharmacokinetic modeling and parameter calculations were carried out using the WinNonlin Professional Version 3.0 (Pharsight, Inc., Mountain, Calif.) pharmacokinetics software (Chen et al., Pharm. Res., 16, 1003 (1999); Chen et al., Pharm. Res., 16, 117 (1999); Chen et al., J. Clin. Pharmacol., 39, 1248 (1999); Uckun et al., Clin. Cancer Res., 5, 2954 (1999); and Uckun et al., J. Pharmacol. Exp. Ther., 291, 1301 (1999)). An appropriate model was chosen on the basis of the lowest sum of weighted squared residuals, the lowest Schwartz Criterion (SC), the lowest Akaike's Information Criterion (AIC) value, the lowest standard errors of the fitted parameters, and the dispersion of the residuals. The elimination half-life was estimated by linear regression analysis of the terminal phase of the plasma concentration-time profile. The area under the concentration-time curve (AUC) was calculated according to the linear trapezoidal rule between the first sampling time (0 hours) and the last sampling time plus C/k, where C is the concentration of the last sampling and k is the elimination rate constant. The systemic clearance (CL) was determined by dividing the dose by the AUC. The metabolic clearance of the parent drug, the formation clearance of the metabolite, the clearance elimination of the metabolite, and the distribution clearance of the metabolite were estimated by simultaneous fitting of the concentration of parent drug and metabolites as a function of time curve to pharmacokinetic models (see FIGS. 7A & 8A) specified as a system of differential equations (Gabrielsson & Weiner, Phamacokinetic/Phamacodynamic Data Analysis: Concepts and Applications, Swedish Pharmaceutical Press (1997)).

Stability in plasma = assay type: in vitro ADME; settings: spiked plasma; 250 μM compound 113, 100 μM Ala-d4T-MP (followed for 1 day)
Method: Plasma samples (200 μL) were mixed 1:4 with acetone (800 μL) and vortexed for at least 30 seconds. Following centrifugation, the supernatant was transferred into a clean tube and was dried under nitrogen. A 50 μL solution of 50% methanol in 200 mM HCl was used to reconstitute the extraction residue, and 40 μL was injected into the HPLC.
(§1) The whole blood samples were placed in a 37° C. water bath, while plasma samples were stored at −20° C. At a predetermined time, an aliquot (100 μl) of spiked whole blood or plasma was extracted by adding 400 μl of acetone to induce precipitation of proteins, as described above.

Stability in whole blood = assay type: in vitro ADME; settings: spiked whole blood 37° C.; 250 μM compound 113, 100 μM Ala-d4T-MP (followed for 1 day)
Method: as §1

[2] = Stability in simulated intestinal fluid; assay type: in vitro ADME; settings: 100 μM, 37° C.
Method: The spiked fluids were then placed in a 37° C. water bath. At a predetermined time, 100 μI aliquots of the spiked gastric or intestinal fluid were extracted by adding 400 μl of acetone as discussed above.

[3] = Pharmacokinetic studies in mice, intravenous administration; assay type: in vivo, Balb/c mice; settings: for AUC / CL / Cmax / Vss / t1/2 / Tmax: plasma analyte = label
Method: Female Balb/c mice (6-8 weeks old) from Taconic (Germantown, N.Y.) were housed in a controlled environment (12-hours of light/12-hours of dark, 22±1° C., 60±10% relative humidity), which is fully accredited by the USDA. All rodents were housed in microisolator cages (Lab Products, Inc., NJ) containing autoclaved bedding. The mice were allowed free access to autoclaved pellet food and tap water throughout the study.
Blood samples (˜500 μL) were obtained from the ocular venous plexus by retro-orbital venipuncture at 0, 2, 5, 10, 15, 30, 45, 60, 120, 240 and 360 minutes after intravenous injection.
as §2, §3

[4] = estimate from composite curve of pooled data
[5] = after i.v. Ala-d4T-MP, model fit, C.V. of modeling in parentheses
[6] = after i.v. compound 113, model fit, C.V. of modeling in parentheses
[7] = after i.v. 75 mg/kg Ala-d4T-MP, estimate from composite curve of pooled data
[8] = after i.v. 75 mg/kg Ala-d4T-MP, mean ± S.E.M
[9] = after i.v. 100 mg/kg compound 113, estimate from composite curve of pooled data
[10] = after i.v. 100 mg/kg compound 113, mean ± S.E.M

**Q.** Which results are given for `Cc1cn([C@H]2C=C[C@@H](COP(=O)(O)NC(C)C(=O)O)O2)c(=O)[nH]c1=O` (stereo partly drawn) [Ala-d4T-MP, alaninyl-d4T-monophosphate]?
**A.** estimated bioavailability ([1]; metabolite = label, after oral administration of compound 113): approximately 12%; AUC [1, 4]: 1350.5 µM·min; Cmax [1, 4]: 12.7 µM; Tmax [1, 4]: 10.3 min; t1/2 [1, 4]: 66.4 min; AUC ([1]; mean ± S.E.M): (1355.4 ± 88.2) μM · min; Cmax ([1]; mean ± S.E.M): 15.6 µM; Tmax ([1]; mean ± S.E.M): (9.3 ± 0.9) min; t1/2 ([1]; mean ± S.E.M): (56.1 ± 8.5) min; stability in plasma (in words) (Stability in plasma): stable; stability in whole blood (in words) (Stability in whole blood): stable; stability in intestinal fluid (in words) [2]: stable; share of CLm1 in the total systemic clearance ([3]; after i.v. Ala-d4T-MP): 99%; CLm1 (metabolic clearance of Ala-d4T-MP / formation clearance of d4T) [3, 5]: 15.6 ml/min/kg and 15.6 (16.6%) ml/min/kg; CLpd (distribution of Ala-d4T-MP to extravascular compartment) [3, 5]: 4.7 ml/min/kg and 4.7 (44.7%) ml/min/kg; CLm3 (metabolic clearance of Ala-d4T-MP / formation clearance of d4T) [3, 6]: 2.17 L/h/kg; CLm1d (distribution of Ala-d4T-MP to the extravascular compartment) [3, 6]: 47.1 ml/min/kg and 62.0 (69.8%) ml/min/kg; fraction of parent converted to the metabolite (fm) ([3]; metabolite = label, after i.v. compound 113): 23%; AUC [3, 7]: 11648.7 µM·min; CL [3, 7]: 0.948 L/h/kg; Cmax [3, 7]: 1210 µM; Vss [3, 7]: 0.2755 L/kg; t1/2 [3, 7]: 28.5 min; AUC [3, 8]: (11761.5 ± 447.2) μM · min; CL [3, 8]: (15.7 ± 0.6) ml/min/kg; Cmax [3, 8]: 1660 µM; Vss [3, 8]: (412.6 ± 126.3) ml/kg; t1/2 [3, 8]: (91.5 ± 54.5) min; AUC [3, 9]: 2854.8 µM·min; Cmax [3, 9]: 67.4 µM; Tmax [3, 9]: 5.9 min; t1/2 [3, 9]: 129.2 min; AUC [3, 10]: (2795.9 ± 361.2) μM · min; Cmax [3, 10]: 69.3 µM; Tmax [3, 10]: (5.1 ± 0.7) min; t1/2 [3, 10]: (138.8 ± 40.2) min
